# Reference: patent US20090044345A1, “Use of Metal Complex Compounds as Oxidation Catalysts” (priority 2006, published 2009)
# Experiments:
# [1] = Stain bleaching in laundry at ambient temperature (hydrogen peroxide), tea stain; set-up: key: CIE brightness Y difference: washed with catalyst minus without; conditions: 10 mmol/l hydrogen peroxide; catalyst 25 μmol/l; IEC 60456* washing agent 7.5 g/l; 50 minutes at ambient temperature; brightness vs. absence of catalyst
# Experimental: (§1) 1 g of a circular stain (BC01 Tea, CFT; WFK10.0 Carrot juice, WFK; CS20/2 Tomato, CFT; BC04 Curry, CFT) was added into a vial with 3 ml washing liquor. The liquor contained a standard washing agent (IEC 60456*) in a concentration of 7.5 g/l. The hydrogen peroxide concentration was 10 mmol/l. The catalyst concentration (1:1 in-situ complex of the ligand with manganese(II) chloride tetrahydrate or iron (ii) chloride in methanolic solution) was 25 μmol/l. The vial was shaken with a shaker for 50 minutes at ambient temperature. After the treatment the fabric was carefully rinsed and ironed. The brightness values Y according to the CIE standard procedure of the stained test fabrics were measured with a Gretag SPM 100 instrument prior to and after the treatment, respectively. The bleaching effect is given as ΔΔY, i.e. the difference between the brightness of the fabrics washed in presence and in the absence of a catalyst, respectively.
# [2] = Dishwashing: removal of tea deposit from tea-stained cups (IKW method); set-up: key: visual scale 0 = unchanged, very strong deposit to 10 = no deposit; conditions: visual scale 0 (very strong deposit) to 10 (no deposit); carbonate buffer pH 9.6, 44 mM hydrogen peroxide, 20 μM catalyst, 15 minutes; reference without catalyst 4.5
# Experimental: Tea-stained cups were prepared according to the IKW method (IKW-Arbeitskreis Maschinenspülmittel, “Methoden zur Bestimmung der Reinigungsleistung von maschinellen Geschirrspülmitteln (Part A and B)”, SÖFW, 11+14, 1998). Tea-stained cups were filled with a carbonate buffer solution (pH 9.6) containing 44 mM hydrogen peroxide and 20 μM catalyst (1:1 in-situ complex of the ligand with manganese(II) chloride tetrahydrate in methanolic solution). After 15 minutes the solution was removed, and the cups were rinsed with water. The removal of the tea deposit was evaluated visually on a scale from 0 (i.e. unchanged, very strong deposit) to 10 (i.e. no deposit).
# [3] = Stain bleaching in laundry at ambient temperature (hydrogen peroxide), tomato stain; set-up: key: CIE brightness Y difference: washed with catalyst minus without; conditions: 10 mmol/l hydrogen peroxide; catalyst 25 μmol/l; IEC 60456* washing agent 7.5 g/l; 50 minutes at ambient temperature; brightness vs. absence of catalyst
# Experimental: as §1
# [4] = Stain bleaching in laundry at 40° C.; set-up: key: CIE brightness increase of stain vs. reference run without catalyst; conditions: tea-stained cotton; 10 mmol/l hydrogen peroxide; catalyst 20 μmol/l; IEC 60456 A* detergent 7.5 g/l; LINITEST 30 minutes at 40° C.; relative to no catalyst
# Experimental: 7.5 g of white cotton fabric and 2.5 g of tea-stained cotton fabric were treated in 80 ml of washing liquor. The liquor contained a standard detergent (IEC 60456 A*) in a concentration of 7.5 g/l. The hydrogen peroxide concentration was 10 mmol/l. The catalyst concentration (1:1 in-situ complex of the ligand with manganese(II) chloride tetrahydrate in methanolic solution) was 20 μmol/l. The washing process was carried out in a steel beaker in a LINITEST apparatus for 30 minutes at 40° C. To evaluate the bleaching results, the increase in brightness ΔΔY of the stains relative to reference experiments without the addition of catalyst (brightness according to CIE) was determined spectrophotometrically.
# [5] = Stain bleaching in laundry at ambient temperature (hydrogen peroxide), curry stain; set-up: key: CIE brightness Y difference: washed with catalyst minus without; conditions: 10 mmol/l hydrogen peroxide; catalyst 25 μmol/l; IEC 60456* washing agent 7.5 g/l; 50 minutes at ambient temperature; brightness vs. absence of catalyst
# Experimental: as §1
# [6] = Stain bleaching in laundry at ambient temperature (hydrogen peroxide), carrot juice stain; set-up: key: CIE brightness Y difference: washed with catalyst minus without; conditions: 10 mmol/l hydrogen peroxide; catalyst 25 μmol/l; IEC 60456* washing agent 7.5 g/l; 50 minutes at ambient temperature; brightness vs. absence of catalyst
# Experimental: as §1
# [7] = Stain bleaching in laundry with peracetic acid as oxidant, curry stain; conditions: peracetic acid 3 mmol/l; catalyst 10 μmol/l; IEC 60456* washing agent 7.5 g/l; 50 minutes at ambient temperature; vs. absence of catalyst
# Experimental: as §1, with “CFT; WFK 0.0” for “CFT; WFK10.0”, “The peracetic acid” for “The hydrogen peroxide”, “was 3” for “was 10”, “was 10” for “was 25”, “presence vs.” for “presence and in”
# [8] = Stain bleaching in laundry with peracetic acid as oxidant, tomato stain; conditions: peracetic acid 3 mmol/l; catalyst 10 μmol/l; IEC 60456* washing agent 7.5 g/l; 50 minutes at ambient temperature; vs. absence of catalyst
# Experimental: as §1, with “CFT; WFK 0.0” for “CFT; WFK10.0”, “The peracetic acid” for “The hydrogen peroxide”, “was 3” for “was 10”, “was 10” for “was 25”, “presence vs.” for “presence and in”
# [9] = Stain bleaching in laundry with peracetic acid as oxidant, tea stain; conditions: peracetic acid 3 mmol/l; catalyst 10 μmol/l; IEC 60456* washing agent 7.5 g/l; 50 minutes at ambient temperature; vs. absence of catalyst
# Experimental: as §1, with “CFT; WFK 0.0” for “CFT; WFK10.0”, “The peracetic acid” for “The hydrogen peroxide”, “was 3” for “was 10”, “was 10” for “was 25”, “presence vs.” for “presence and in”
# [10] = Stain bleaching in laundry with peracetic acid as oxidant, carrot juice stain; conditions: peracetic acid 3 mmol/l; catalyst 10 μmol/l; IEC 60456* washing agent 7.5 g/l; 50 minutes at ambient temperature; vs. absence of catalyst
# Experimental: as §1, with “CFT; WFK 0.0” for “CFT; WFK10.0”, “The peracetic acid” for “The hydrogen peroxide”, “was 3” for “was 10”, “was 10” for “was 25”, “presence vs.” for “presence and in”
SMILES,ΔΔY (Tea) [1],Rating [2],ΔΔY (Tomato) [3],ΔΔY [4],ΔY Δ(Curry) [5],ΔΔY (Carrot Juice) [6],ΔΔY (Curry) [7],ΔΔY (Tomato) [8],ΔΔY (Tea) [9],ΔΔY (Carrot Juice) [10]
"CN(Cc1ccccn1)Cc1cc(O)cc(-c2ccccn2)n1 [Ligand 23-Mn, 6-[(methyl-pyridin-2-ylmethyl-amino)-methyl]-[2,2′]bipyridinyl-4-ol]",2.9,6.0,0.6,2.1,7.4,1.3,–,–,–,–
"CN(Cc1ccccn1)Cc1cc(O)cc(-c2cc(N3CCCC3)ccn2)n1 [Ligand 27-Mn, 6-[(methyl-pyridin-2-ylmethyl-amino)-methyl]-4′-pyrrolidin-1-yl-[2,2′]bipyridinyl-4-ol]",5.3,6.7,4.7,2.7,8.2,1.3,–,–,–,–
"CN1CCN(c2ccnc(-c3cc(O)cc(CN(C)Cc4ccccn4)n3)c2)CC1 [Ligand 29-Mn, 4′-(4-methyl-piperazin-1-yl)-6-[(methyl-pyridin-2-ylmethyl-amino)-methyl]-[2,2′]bipyridinyl-4-ol]",6.4,6.1,4.4,–,8.3,3.1,–,–,–,–
"CN1CCN(c2ccnc(-c3cc(O)cc(CN(C)Cc4ccccn4)n3)c2)CC1 [Ligand 29/Fe, 4′-(4-methyl-piperazin-1-yl)-6-[(methyl-pyridin-2-ylmethyl-amino)-methyl]-[2,2′]bipyridinyl-4-ol]",–,–,–,5.0,–,–,–,–,–,–
"CN(Cc1ccccn1)Cc1cc(O)cc(-c2cc(N3CC[N+](C)(C)CC3)ccn2)n1.[I-] [Ligand 30-Mn, 4-{4′-hydroxy-6′-[(methyl-pyridin-2-ylmethyl-amino)-methyl]-[2,2′]bipyridinyl-4-yl}-1,1-dimethyl-piperazin-1-ium iodide]",7.0,7.8,7.4,4.5,7.1,3.6,–,–,–,–
"CN(Cc1cc(N(C)C)ccn1)Cc1cc(O)cc(-c2cc(N3CCCC3)ccn2)n1 [Ligand 32-Mn, 6-{[(4-dimethylamino-pyridin-2-ylmethyl)-methyl-amino]-methyl}-4′-pyrrolidin-1-yl-[2,2′]bipyridinyl-4-ol]",6.4,6.0,5.6,4.5,8.5,3.1,5.3,1.2,5.6,2.5
"CN(Cc1cc(N(C)C)ccn1)Cc1cc(O)cc(-c2cc(N(C)CCO)ccn2)n1 [Ligand 33-Mn, 6-{[(4-dimethylamino-pyridin-2-ylmethyl)-methyl-amino]-methyl}-4′-[(2-hydroxy-ethyl)-methyl-amino]-[2,2′]bipyridinyl-4-ol]",5.5,7.1,6.0,3.9,9.1,3.9,5.7,1.5,6.1,3.4
"COc1c(C)cnc(CN(C)Cc2cc(O)cc(-c3cc(N4CCCC4)ccn3)n2)c1C [Ligand 36-Mn, 6-{[(4-methoxy-3,5-dimethyl-pyridin-2-ylmethyl)-methyl-amino]-methyl}-4′-pyrrolidin-1-yl-[2,2′]bipyridinyl-4-ol]",4.0,6.9,4.9,1.6,6.3,3.3,–,–,–,–
"CN(Cc1cc(N2CCCC2)ccn1)Cc1cc(O)cc(-c2cc(N3CCCC3)ccn2)n1 [Ligand 39-Mn, 6-{[methyl-(4-pyrrolidin-1-yl-pyridin-2-ylmethyl)-amino]-methyl}-4′-pyrrolidin-1-yl-[2,2′]bipyridinyl-4-ol]",5.1,6.3,8.8,4.0,7.9,4.2,–,–,–,–
"CN(Cc1cc(N(C)C)ccn1)Cc1cc(O)cc(-c2cc(N(C)C)ccn2)n1 [Ligand 40a-Mn, 4′-dimethylamino-6-{[(4-dimethylamino-pyridin-2-ylmethyl)-methyl-amino]-methyl}-[2,2′]bipyridinyl-4-ol]",7.0,5.9,5.0,3.0,3.0,5.0,6.4,3.5,7.0,1.6
CN(Cc1cc(N(C)C)ccn1)Cc1cc(N(C)C)cc(-c2cc(N(C)C)ccn2)n1 [Ligand 40b-Mn],1.7,5.8,2.3,1.0,3.7,2.7,–,–,–,–
"CN(Cc1cc(-n2cccc2)ccn1)Cc1cc(O)cc(-c2cc(N(C)C)ccn2)n1 [Ligand 40c-Mn, 4′-dimethylamino-6-{[methyl-(4-pyrrol-1-yl-pyridin-2-ylmethyl)-amino]-methyl}-[2,2′]bipyridinyl-4-ol]",3.9,6.8,1.3,2.2,4.9,2.5,–,–,–,–
